Assay results: patent US10759813B2, “Neprilysin inhibitors” (THERAVANCE BIOPHARMA R&D IP, LLC, priority 2010, dated 2020)

molecular target: human neprilysin (EC 3.4.24.11; NEP) (Homo sapiens (Human), UniProt P08473); test: In vitro enzyme inhibition assay at human NEP (fluorogenic peptide substrate); assay type: biochemical; conditions: pKi values at human NEP, recombinant human NEP
In short: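 pKi derived from apparent Ki fitted as v=v0/[1+(I/K′)] to Ex320/Em405 fluorescence. Compounds (pM to 10 μM) sat with recombinant human enzyme 30 min at 37 °C before 10 μM fluorogenic Mca peptide was added in HEPES pH 7.5 buffer with 10 μM ZnSO4; 20 min reaction, acetic acid quench.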

Sequence of human neprilysin (EC 3.4.24.11; NEP) (P08473 52-750): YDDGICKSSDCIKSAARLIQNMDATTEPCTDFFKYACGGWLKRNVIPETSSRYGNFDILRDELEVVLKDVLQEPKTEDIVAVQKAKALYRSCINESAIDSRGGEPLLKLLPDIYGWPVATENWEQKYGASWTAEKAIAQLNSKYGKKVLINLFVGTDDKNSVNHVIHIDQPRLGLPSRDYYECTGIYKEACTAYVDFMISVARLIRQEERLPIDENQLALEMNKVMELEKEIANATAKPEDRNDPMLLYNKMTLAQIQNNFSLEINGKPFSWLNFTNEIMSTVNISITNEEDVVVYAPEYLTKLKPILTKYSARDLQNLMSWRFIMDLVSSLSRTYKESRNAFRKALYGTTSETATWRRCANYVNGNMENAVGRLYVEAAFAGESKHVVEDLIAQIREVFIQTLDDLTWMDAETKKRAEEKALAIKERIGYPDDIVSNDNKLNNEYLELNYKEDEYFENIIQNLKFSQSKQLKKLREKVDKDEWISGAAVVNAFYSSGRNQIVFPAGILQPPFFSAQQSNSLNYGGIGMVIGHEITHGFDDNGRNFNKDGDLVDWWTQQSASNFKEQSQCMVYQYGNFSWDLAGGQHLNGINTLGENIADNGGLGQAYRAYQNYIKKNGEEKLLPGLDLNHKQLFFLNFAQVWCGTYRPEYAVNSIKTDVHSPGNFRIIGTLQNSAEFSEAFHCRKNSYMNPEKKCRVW

pKi | Ki [nM] | Structure (SMILES)
≥9.0 |  | COc1ccc(F)cc1-c1cc(C(=O)N[C@H](Cc2ccc(-c3ccccc3)cc2)C[C@@H](O)C(=O)O)[nH]n1 [Example 15-86, (2R,4R)-5-Biphenyl-4-yl-4-{[5-(5-fluoro-2-methoxy-phenyl)-2H-pyrazole-3-carbonyl]-amino}-2-hydroxy-pentanoic acid]
 | 1.26 to 10 | O=C(N[C@H](Cc1ccc(-c2cccc(Cl)c2)cc1)C[C@@H](O)C(=O)O)c1ccc(=O)n(-c2ccccc2)n1 [Example 18-49, (2R,4R)-5-(3′-Chlorobiphenyl-4-yl)-2-hydroxy-4-[(6-oxo-1-phenyl-1,6-dihydro-pyridazine-3-carbonyl)-amino]-pentanoic acid]
 | 12.6 to 100 | O=C(N[C@H](Cc1ccc(-c2ccccc2)cc1)CC(O)C(=O)O)c1cn[nH]c1 (stereo partly drawn) [Example 15-113, (R)-5-Biphenyl-4-yl-2-hydroxy-4-[(1H-pyrazole-4-carbonyl)amino]pentanoic acid]
≥9.0 |  | O=C(N[C@H](Cc1ccc(-c2ccccc2)cc1Cl)C[C@@H](O)C(=O)O)c1nn(-c2ccccc2)c(=O)[nH]1 [Example 20-4, (2R,4R)-5-(3-Chloro-biphenyl-4-yl)-2-hydroxy-4-[(5-oxo-1-phenyl-4,5-dihydro-1H-[1,2,4]triazole-3-carbonyl)-amino]-pentanoic acid]
 | ≤ 1 | CCCNC(=O)c1cc(C(=O)N[C@H](Cc2ccc(-c3ccccc3)cc2)CC(O)C(=O)O)[nH]n1 (stereo partly drawn) [Example 15-61, (R)-5-Biphenyl-4-yl-2-hydroxy-4-[(5-propylcarbamoyl-2H-pyrazole-3-carbonyl)-amino]pentanoic acid]
 | 1.26 to 10 | CCCCc1cc(C(=O)N[C@H](Cc2ccc(-c3ccccc3)cc2)CC(O)C(=O)O)[nH]n1 (stereo partly drawn) [Example 15-75, (R)-5-Biphenyl-4-yl-4-[(5-butyl-2H-pyrazole-3-carbonyl)-amino]-2-hydroxy-pentanoic acid]
 | 1.26 to 10 | O=C(N[C@H](Cc1ccc(-c2ccccc2)cc1)CC(O)C(=O)O)c1cc(C(=O)O)n(Cc2c(F)cc(Cl)cc2F)n1 (stereo partly drawn) [Example 15-8, 5-((R)-1-Biphenyl-4-ylmethyl-3-carboxy-3-hydroxy-propylcarbamoyl)-2-(4-chloro-2,6-difluorobenzyl)-2H-pyrazole-3-carboxylic acid]
≥9.0 |  | CC(C)CN(C)C(=O)c1cc(C(=O)N[C@H](Cc2ccc(-c3ccccc3)cc2)C[C@@H](O)C(=O)O)[nH]n1 [Example 15-67, (2R,4R)-5-Biphenyl-4-yl-2-hydroxy-4-{[5-(isobutylmethyl-carbamoyl)-2H-pyrazole-3-carbonyl]amino}-pentanoic acid]
 | 1.26 to 10 | O=C(N[C@H](Cc1ccc(-c2ccccc2)cc1)CC(O)C(=O)O)c1cc(C(=O)O)n(Cc2cc(F)ccc2Cl)n1 (stereo partly drawn) [Example 15-10, 5-((R)-1-Biphenyl-4-ylmethyl-3-carboxy-3-hydroxy-propylcarbamoyl)-2-(2-chloro-5-fluorobenzyl)-2H-pyrazole-3-carboxylic acid]
 | 12.6 to 100 | CCCCC(=O)Nc1cc(C(=O)N[C@H](Cc2ccc(-c3ccccc3)cc2)CC(O)C(=O)O)[nH]n1 (stereo partly drawn) [Example 15-92, (R)-5-Biphenyl-4-yl-2-hydroxy-4-[(5-pentanoylamino-2H-pyrazole-3-carbonyl)-amino]-pentanoic acid]
 | ≤ 1 | O=C(N[C@H](Cc1ccc(-c2ccccc2)cc1)CC(O)C(=O)O)c1cc(C(=O)N2CCC(O)C2)n[nH]1 (stereo partly drawn) [Example 15-42, (R)-5-Biphenyl-4-yl-2-hydroxy-4-{[5-(3-hydroxypyrrolidine-1-carbonyl)-2H-pyrazole-3-carbonyl]-amino}-pentanoic acid]
 | ≤ 1 | O=C(N[C@H](Cc1ccc(-c2ccccc2)cc1)C[C@@H](O)C(=O)O)c1cc(-c2ccccn2)n[nH]1 [Example 15-102, (2R,4R)-5-Biphenyl-4-yl-2-hydroxy-4-[(5-pyridin-2-yl-2H-pyrazole-3-carbonyl)-amino]-pentanoic acid]
 | 1.26 to 10 | O=C(N[C@H](Cc1ccc(-c2ccccc2)cc1)CC(O)C(=O)O)c1cc(-c2ccccc2)n[nH]1 (stereo partly drawn) [Example 15-76, (R)-5-Biphenyl-4-yl-2-hydroxy-4-[(5-phenyl-2H-pyrazole-3-carbonyl)-amino]-pentanoic acid]
 | 1.26 to 10 | NC(=O)c1cc(C(=O)N[C@H](Cc2ccc(-c3ccccc3)cc2)CC(O)C(=O)O)[nH]n1 (stereo partly drawn) [Example 15-59, (R)-5-Biphenyl-4-yl-4-[(5-carbamoyl-2H-pyrazole-3-carbonyl)-amino]-2-hydroxy-pentanoic acid]
 | 1.26 to 10 | O=C(O)Cc1cc(C(=O)N[C@H](Cc2ccc(-c3ccccc3)cc2)C[C@@H](O)C(=O)O)n[nH]1 [Example 15-2, (2R,4R)-5-Biphenyl-4-yl-4-[(5-carboxymethyl-1H-pyrazole-3-carbonyl)amino]-2-hydroxy-pentanoic acid]
≥9.0 |  | CC(=O)c1cc(C(=O)N[C@H](Cc2ccc(-c3cccc(Cl)c3)cc2)C[C@@H](O)C(=O)O)on1 [Example 18-7, (2R,4R)-4-[(3-Acetyl-isoxazole-5-carbonyl)-amino]-5-(3′-chlorobiphenyl-4-yl)-2-hydroxy-pentanoic acid]
 | 1.26 to 10 | CCCCc1cc(C(=O)N[C@H](Cc2ccc(-c3ccccc3)cc2)C[C@@H](O)C(=O)O)[nH]n1 [Example 15-112, (2R,4R)-5-Biphenyl-4-yl-4-[(5-butyl-2H-pyrazole-3-carbonyl)-amino]-2-hydroxy-pentanoic acid]
≥9.0 |  | COc1ccccc1-c1cc(C(=O)N[C@H](Cc2ccc(-c3ccccc3)cc2)C[C@@H](O)C(=O)O)[nH]n1 [Example 15-79, (2R,4R)-5-Biphenyl-4-yl-2-hydroxy-4-{[5-(2-methoxy-phenyl)-2H-pyrazole-3-carbonyl]-amino}-pentanoic acid]
≥9.0 |  | O=C(N[C@H](Cc1ccc(-c2cccc(Cl)c2)cc1)C[C@@H](O)C(=O)O)c1nn(-c2ccccc2)c(=O)[nH]1 [Example 18-47, (2R,4R)-5-(3′-Chlorobiphenyl-4-yl)-2-hydroxy-4-[(5-oxo-1-phenyl-4,5-dihydro-1H-[1,2,4]triazole-3-carbonyl)-amino]-pentanoic acid]
≥9.0 |  | O=C(N[C@H](Cc1ccc(-c2cccc(Cl)c2)cc1)C[C@@H](O)C(=O)O)c1ccc(O)nn1 [Example 18-50, (2R,4R)-5-(3′-Chlorobiphenyl-4-yl)-2-hydroxy-4-[(6-hydroxy-pyridazine-3-carbonyl)-amino]-pentanoic acid]
≥9.0 |  | COc1cc(C(=O)N[C@H](Cc2ccc(-c3cccc(Cl)c3)cc2)C[C@@H](O)C(=O)O)on1 [Example 18-8, (2R,4R)-5-(3′-Chlorobiphenyl-4-yl)-2-hydroxy-4-[(3-methoxy-isoxazole-5-carbonyl)-amino]-pentanoic acid]

Further lines, the compound ahead of its results:

Structure (SMILES) | pKi | Ki [nM]
O=C(N[C@H](Cc1ccc(-c2ccccc2)cc1)C[C@@H](O)C(=O)O)c1cc(C2CCCCC2)no1 [Example 12-7, (2R,4R)-5-Biphenyl-4-yl-4-[(3-cyclohexyl-isoxazole-5-carbonyl)-amino]-2-hydroxy-pentanoic acid] | ≥9.0 | 
Cc1cc(C(=O)N[C@H](Cc2ccc(-c3ccccc3)cc2)CC(O)C(=O)O)cc2[nH]nnc12 (stereo partly drawn) [Example 11-6, (R)-5-Biphenyl-4-yl-2-hydroxy-4-[(7-methyl-3H-benzotriazole-5-carbonyl)amino]pentanoic acid] |  | 1.26 to 10
O=C(O)c1cnc(C(=O)N[C@H](Cc2ccc(-c3ccccc3)cc2)CC(O)C(=O)O)cn1 (stereo partly drawn) [Example 13-1, 5-((R)-1-Biphenyl-4-ylmethyl-3-carboxy-3-hydroxypropylcarbamoyl)-pyrazine-2-carboxylic acid] |  | 1.26 to 10
COCCN(C)C(=O)c1cc(C(=O)N[C@H](Cc2ccc(-c3ccccc3)cc2)C[C@H](O)C(=O)O)[nH]n1 [Example 3-C, (2S,4R)-5-Biphenyl-4-yl-2-hydroxy-4-({5-[(2-methoxyethyl)methylcarbamoyl]-2H-pyrazole-3-carbonyl}amino)pentanoic Acid] |  | 1.26 to 10
O=C(O)c1cc(C(=O)N[C@H](Cc2ccc(-c3ccccc3)cc2)C[C@@H](O)C(=O)O)on1 [Example 12-14, 5-((1R,3R)-1-Biphenyl-4-ylmethyl-3-carboxy-3-hydroxy-propylcarbamoyl)-isoxazole-3-carboxylic acid] |  | 12.6 to 100
O=C(N[C@H](Cc1ccc(-c2ccccc2)cc1)C[C@@H](O)C(=O)O)c1n[nH]c(O)n1 [Example 10-9, (2R,4R)-5-Biphenyl-4-yl-2-hydroxy-4-[(5-hydroxy-1H-[1,2,4]triazole-3-carbonyl)amino]-pentanoic acid] |  | 1.26 to 10
O=C(N[C@H](Cc1ccc(-c2ccccc2)cc1)C[C@@H](O)C(=O)O)c1cc(-c2ccc(Cl)cc2)no1 [Example 12-4, (2R,4R)-5-Biphenyl-4-yl-4-{[3-(4-chlorophenyl)-isoxazole-5-carbonyl]-amino}-2-hydroxy-pentanoic acid] | ≥9.0 | 
COc1ccccc1C(=O)Nc1cc(C(=O)N[C@H](Cc2ccc(-c3ccccc3)cc2)C[C@@H](O)C(=O)O)on1 [Example 12-5, (2R,4R)-5-Biphenyl-4-yl-2-hydroxy-4-{[3-(2-methoxy-benzoylamino)-isoxazole-5-carbonyl]-amino}-pentanoic acid] | ≥9.0 | 
O=C(N[C@H](Cc1ccc(-c2ccccc2)cc1)CC(O)C(=O)O)c1nnc(-c2ccccn2)[nH]1 (stereo partly drawn) [Example 10-10, (R)-5-Biphenyl-4-yl-2-hydroxy-4-[(5-pyridin-2-yl-4H-[1,2,4]triazole-3-carbonyl)amino]pentanoic acid] |  | 1.26 to 10
O=C(N[C@H](Cc1ccc(-c2ccccc2)cc1)CC(O)C(=O)O)c1ccc(C(=O)O)nc1 (stereo partly drawn) [Example 13-8, 5-((R)-1-Biphenyl-4-ylmethyl-3-carboxy-3-hydroxypropylcarbamoyl)-pyridine-2-carboxylic acid] |  | 12.6 to 100
O=C(N[C@H](Cc1ccc(-c2ccccc2)cc1)C[C@@H](O)C(=O)O)c1cn(O)nn1 [Example 10-3, (2R,4R)-5-Biphenyl-4-yl-2-hydroxy-4-[(1-hydroxy-1H-[1,2,3]triazole-4-carbonyl)-amino]-pentanoic acid] | ≥9.0 | 
